Reference: paper PMC6222606, “Biodegradation of 7-Hydroxycoumarin in Pseudomonas mandelii 7HK4 via ipso-Hydroxylation of 3-(2,4-Dihydroxyphenyl)-propionic Acid” (Molecules : A Journal of Synthetic Chemistry and Natural …, 2018)

Target: T1, HcdB (Pseudomonas mandelii, UniProt A0A385IUB9)
T1 sequence (A0A385IUB9 1-186): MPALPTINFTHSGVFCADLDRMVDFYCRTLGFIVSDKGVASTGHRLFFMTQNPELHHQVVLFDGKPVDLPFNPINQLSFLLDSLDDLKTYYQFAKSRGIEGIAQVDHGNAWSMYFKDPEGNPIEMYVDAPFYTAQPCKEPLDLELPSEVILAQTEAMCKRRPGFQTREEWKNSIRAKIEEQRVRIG
Experiment: whole-cell bioconversion, UV-VIS of yellow meta-cleavage product; cells without hcdB inactive
Type: cell-based
Settings: […] potassium phosphate pH […] °C, […] substrate

Oc1ccccc1O [pyrocatechol]
whole-cell bioconversion, UV-VIS of yellow meta-cleavage product; cells without: HcdB is capable oxidizing pyrocatechol, 3-methylcatechol, 3-methoxycatechol, 4-methylcatechol
